Legend:
human cancer cell lines = assay: Annexin V (+)/PI (-) apoptosis assay in human cancer cell lines; type: cell-based
Protocol: For the Annexin V assay, 2.0×10^5 cells treated with IR (0 or 10 Gy) and/or Gö6976 (0 or 1 μM) for 48 h were washed with cold-PBS and resuspended in staining buffer containing propidium iodide (PI) and fluorescein isothiocynate (FITC)-conjugated anti-AnnexinV antibody (MEBCYTO apoptosis kit, MBL international, MA). After 30 min incubation at room temperature, cells were analyzed by flow cytometry (FACScaliber, BD Bioscience, San Jose, Calif.) and CellQuest analysis program (BD Bioscience). The cells in PI-negative and AnnexinV-positive fraction were evaluated as apoptosis. Data were collected from two independent experiments in which each condition (shRNA, presence or absence of Gö6976) was analyzed in triplicate.

[1] = system: p53^e7/e7;chk1^MO cells grafted into p53^e7/e7 hosts; assay: Blastula-cell transplantation (genetic chimeras), TUNEL after IR; type: in vivo, zebrafish; conditions: 12.5 Gy, n=102
Excerpt: To determine whether the Chk1-antagonized pathway functions cell autonomously or non-cell autonomously, we generated genetic chimeras (see cell transplantation procedure in FIG. 3D and assay validation in FIG. 14). While p53^e7/e7;chk1^MO cells grafted into p53^e7/e7 hosts often stained TUNEL-positive after IR (39%, n=102), neighboring host cells were virtually never seen that stained TUNEL-positive (FIG. 3E, upper panels). In the reciprocal experiment, p53^e7/e7 cells transplanted into p53^e7/e7;chk1^MO hosts remained TUNEL-negative within an otherwise TUNEL-positive environment (FIG. 3E, lower panels). Therefore, IR-induced TUNEL reactivity of transplanted cells strictly depends on Chk1 dosage, occurs irrespective of the cellular environment, and has very little, if any, influence on neighboring cells. The Chk1-suppressed apoptotic pathway thus functions in a cell-autonomous manner.
Zebrafish embryos were fixed in 4% paraformaldehyde (PFA) overnight at 4° C. and subsequently stored in methanol at −20° C. for at least 2 hr. After rehydration at room temperature in PBST (1×PBS, 0.1% Tween-20), embryos were treated with proteinase K (10 μg/mL) in PBS for 15 min, followed by a 20-min postfix in 4% PFA at room temperature. […] Tagged DNA was detected with sheep anti-digoxigenin-fluorescein or sheep anti-digoxigenin-rhodamine conjugated Fab fragments. […]

Row | Molecule | apoptosis (human cancer cell lines; TP53+/+ HCT116 cells, IR+Gö6976) | apoptosis versus single- or no-treatment controls (human cancer cell lines; TP53 null or mutant lines, 10 Gy IR+Gö6976, 48 hpIR) | grafted cells staining TUNEL-positive after IR [1] [%]
1 | Cn1c2ccccc2c2c3c(c4c5ccccc5n(CCC#N)c4c21)CNC3=O [Gö6976] | moderate, yet significant increase in apoptosis | increases in caspase-2 cleavage and apoptosis | –
2 | chk1 MO: morpholino against zebrafish chk1 atg/5'UTR, aggcacagccattatgcaatcttcg (SEQ ID NO: 11) (AGGCACAGCCATTATGCAATCTTCG; all phosphorodiamidate morpholino (PMO)) | – | – | 39
